Assay results from US20220370553A1, “PREBIOTIC-INDUCED ANTI-TUMOR IMMUNITY” (Sanford Burnham Prebys Medical Discovery Institute, priority 2019, published 2022).

What was measured:
[1] = system: N-Ras mutant melanoma tumor cells (MaNRAS1); assay: Growth of N-Ras mutant melanoma tumors with prebiotics with or without MEKi; format: in vivo, C57BL/6 mice
Procedure: FIG. 7A C57BL/6 mice were injected (s.c.) with NRAS^Q61K mouse melanoma cells (1×10^6) (n=10). The mice were administered with either a control diet alone, or one supplemented with mucin (3%) in drinking water or inulin (15%) in chow starting 14 days prior to tumor inoculation. When tumors reached a volume of 10-20 mm^2, mice were treated with MEKi (PD325901) administered by gavage (10 mg/kg, daily), alone or in combination with inulin or mucin, as indicated. Tumor volume was assessed every 4 days. […] Data are representative of two independent experiments. Graphs show the mean±s.e.m. *P<0.05, **P<0.005, ***P<0.001, ****P<0.0001 by two-way ANOVA with Tukey's correction (A) or one-way ANOVA with Tukey's correction (B-D).
Animals and tumor models. […] Male 6-8-week-old mice were used for all experiments. […] All mice were fed an autoclaved chow diet ad libitum (LabDiet 5K67, Purina Foods). […] Mouse selection for experiments was not formally randomized or blinded. For tumor growth experiments, mice were injected subcutaneously (s.c.) with 1×10^6 tumor cells. Tumor size was measured twice a week for calculation of tumor volume. Tumors were weighed at the time of excision.
Mucin and inulin treatment. For mucin treatment, C57BL/6 mice were subjected to control or water supplemented with 3% mucin (Lee Biosolutions) prior to (14 days) and during tumor inoculation. Water was changed every other day. For inulin treatment, mice were received a diet (TD. 94048, AIN-93M, Purified Diet, ENVIGO) enriched with long-chain inulin by substituting all of sucrose and 5% of corn starch in the control diet or a modified diet (TD. 160256, Modified AIN-93M, Diet w 15% inulin, ENVIGO) prior to (14 days) and during tumor inoculation. Diets were changed 2 times a week.
Experiments were conducted to determine whether prebiotics impacted the effectiveness of MEK inhibitor (MEKi) treatment on tumor growth control and treatment resistance.

gut microbiota = format: in vivo, C57BL/6 mice
Procedure: Bacterial DNA extraction and 16S library preparation. […] Mouse fecal pellets were frozen on dry ice, and stored at −80° C. Bacterial DNA was extracted using the QIAmp Fast DNA Stool Mini Kit (Qiagen). To ensure efficient cell lysis, a 5-min bead-beating step using a Mini-Beadbeater-16 was included (Biospec Products, OK, USA). Library preparation for the Illumina MiSeq platform was performed by amplification of the V3-V4 region of the bacterial 16S ribosomal DNA gene using
C. Adapter and barcode sequences for dual indices were used as described by Illumina. PCR clean up steps were performed with QIAquick 96-PCR Clean up kit (Qiagen, Germany), and library quantification was performed using a KAPA Library Quantification Kit for Illumina platforms (KAPA Biosystems, MA, USA). An Experion Automated Gel Electrophoresis System (Bio-Rad, CA, USA) was used to measure the DNA concentration and purity of the pooled libraries. The 16S libraries were sequenced at Novagene (Beijing, China) and the SBP sequencing Core.
16S sequencing data processing. The original FASTQ files from Illumina 250 basepair paired-end sequencing of the samples were processed using a novel 16S amplicon sequencing pipeline HiMap (http://github.com/taolonglab/himap; BioRxiv 565572). The output of HiMap is Operational Strain Unit (OSU) which contains one or more bacterial strains that best match the 16S sequence and cannot be further distinguished. The percentage similarity between the 16S sequence and the aligned region of 16S rRNA genes of the strains in the OSU is indicated. OSUs mapped to the same strains are grouped together (adding read counts) if percentage similarities are within 3%. Read counts are converted into relative abundance as described in HiMap. Log 10-transformed relative abundances were used for comparisons between samples under different experimental conditions.

Yumm1.5 tumors [2] = assay: Flow cytometry of tumor-infiltrating immune cells in Yumm1.5 tumors; format: in vivo, C57BL/6 mice; conditions: 20 days following tumor inoculation
Description: (§1) FIG. 2B, Quantification of tumor-infiltrating effector (CD44hi) CD4+, CD8+ and CD45+ T cells from mice treated as in FIG. 2A (n=10). FIG. 2C, Quantification of tumor-infiltrating, IFN-g-producing CD4+ T cells from mice treated as in FIG. 2A (n=10). FIG. 2D, Quantification of tumor-infiltrating total DCs and subsets in mice treated as in FIG. 2A (n=10). FIG. 2E, MFI of MHC class I and MHC class II on DCs from the tumors of mice treated as in FIG. 2A (n=10). […] Graphs show the mean s.e.m. *P<0.05, **P<0.005, ***P<0.001,****P<0.0001 by two-way ANOVA with Tukey's correction (A) and by one-way ANOVA with Tukey's correction (B-E).
(§2) Tumor digestion. Tumors were excised, minced, and digested with 1 mg/ml collagenase D (Roche) and 100 μg/ml DNase I (Sigma) at 37° C. for 1 h. Digests were then passed through a 70-μm cell strainer to generate a single-cell suspension. The cells were washed twice with PBS containing 2 mM EDTA, and then stained for flow cytometry.
(§3) Flow cytometry. Tumor-derived single-cell suspensions were washed twice with FACS staining buffer, fixed for 15 min with 1% formaldehyde in PBS, washed twice, and resuspended in FACS staining buffer. For intracellular cytokine staining, cells were resuspended in complete RPMI-1640 (containing 10 mM HEPES, 1% non-essential amino acids and L-glutamine, 1 mM sodium pyruvate, 10% heat-inactivated fetal bovine serum (FBS), and antibiotics) supplemented with 50 U/mL IL-2 (NCI), […] brefeldin A (BFA, Sigma), and incubated with phorbol myristate acetate (10 ng/ml) and ionomycin (0.5 μg/ml) at 37° C. The cells were then fixed and permeabilized using a Cytofix/Cytoperm Kit (BD Biosciences) before staining. Antibodies to the following proteins were used: CD45.2 (104), CD8a (53-6.7), CD4 (GK1.5), CD44 (IM7), TNF-α (MP6-XT22), IFN-γ (XMG1.2), CD11c (N418), CD11b (M1/70), MHC class II (M5/114.15.2), PDCA (129c1), and B220 (RA3-6B2) from BioLegend, and antibodies to IL-2 (JES6-5H4) and MHC class I (AF6-88.5.5.3) from eBioscience. All data were collected on an LSRFortessa (BD Biosciences) and analyzed using FlowJo Software (Tree Star).

CD8+ T cells = assay: qRT-PCR of cytokine and chemokine mRNAs in CD8+ T cells in vitro; format: cell-based, mice; conditions: 0.05 or 0.5 mg/ml in vitro
Description: Data are representative of two independent experiments. Graphs show the mean±s.e.m. *P<0.05, **P<0.005, ***P<0.001, ****P<0.0001 one-way ANOVA with Tukey's correction.
RNA extraction and qRT-PCR analyses. Total RNA was extracted from tumor samples individually using the RNeasy Fibrous Tissue Midi kit (QIAGEN) or cells treated as indicated using High Capacity Reverse Transcriptase kits (Invitrogen) according to the manufacturer's protocol. Purity and concentration of extracted RNA were checked and quantified by reading at 260 and 280 nm in a NanoDrop spectrophotometer (Thermo Fisher). The qRT-PCR analyses were performed using Syber Green RT-PCR kits (Invitrogen) on a Bio-Rad CFX Connect Real-Time system. Expression levels normalized to 18S or Tubb5 controls.

[3] = system: intestinal epithelial cells; assay: qRT-PCR of inflammatory mediators in intestinal epithelial cells in vivo; parameters: species or system C57BL/6 mice; conditions: inulin 15% in chow, naïve mice, 2 weeks
Description: FIG. 15 illustrates effects of mucin and inulin on expression of inflammatory mediators by intestinal epithelial cells in vivo. qRT-PCR data are shown for mRNA levels of the indicated inflammatory mediators in intestinal epithelial cells from mucin or inulin-treated mice (n=4). Data are representative of two independent experiments. Graphs show the mean s.e.m. *P<0.05, **P<0.005, one-way ANOVA with Tukey's correction.
Isolation of intestinal epithelial cells. A 10 cm section of mouse small intestine was opened longitudinally, minced, washed in 150 mM NaCl containing 1 mM DTT, and then resuspended in dissociation buffer (130 mM NaCl, 10 mM EDTA, 10 mM Hepes [pH 7.4], 10% FCS, and 1 mM DTT). The sections were incubated at 37° C. for 30 min with vigorous shaking to release the epithelial cells from the lamina propria. The epithelial cell suspension was then carefully aspirated, centrifuged, and washed in ice-cold PBS.
The effect of mucin and inulin on intestinal epithelial cells was evaluated in vivo. To this end, mucin (3% in drinking water) or inulin (15% in chow) were administered to naïve C57BL/6 mice for 2 weeks. Intestinal epithelial cells were isolated from small intestine and were assessed for the level of select cytokines and chemokines that are implicated in the activation of the immune response and anti-tumor immunity.

Bacteroides spp. = assay: Anaerobic fecal cultures with 1% prebiotic, 16S rDNA quantification; format: cell-based; conditions: fecal cultures of 12 healthy human subjects, 3-4 days at 37° C.
Procedure: (§4) Fecal samples derived from 12 healthy human subjects were cultivated in the presence or absence of 1% prebiotic. 16S rDNA sequences corresponding to Bifidobacterium, Bacteroides and Akkermansia muciniphila were quantified. Data are representative of three independent experiments. Graphs show the mean±s.e.m. *P<0.05, **P<0.005, ***P<0.001, ****P<0.0001 by one-way ANOVA with Tukey's correction.
(§5) Anaerobic fecal cultures. […] Anaerobic cultures (9% H2, 81% N2) were grown statically for 3-4 days at 37° C. and grown to approximate saturation.
(§6) Chemically-defined medium (CDM). CDM contains 50 mM HEPES, 2.2 mM KH2PO4, 10 mM Na2HPO4, 60 mM NaHCO3, 4 mM of each amino acid, except leucine (15 mM), 10 mL ATCC, Trace Mineral Supplement. CDM contained nucleoside bases (100 mg/L), inosine, xanthine, adenine, guanine, cytosine, thymidine and uracil (400 mg/L). CDM contained choline (100 mg/L), ascorbic acid (500 mg/L), lipoic acid (2 mg/L), hemin (1.2 mg/L) and myo-inositol (400 mg/L). Resazurin (1 mg/L) was added to visually monitor dissolved oxygen. The pH of the media was adjusted to 7.4.
(§7) Fecal samples derived from 12 healthy, vegetarian human subjects were cultivated in a chemically-defined medium the presence or absence of 1% prebiotic. Anaerobic cultures (9% H2, 81% N2) were grown statically for 3-4 days at 37° C. and grown to approximate saturation.

[4] = system: MC-38 mouse colorectal cancer cells; assay: Flow cytometry of tumor-infiltrating immune cells in MC-38 tumors; format: in vivo, C57BL/6 mice
Procedure: as §2, §3
(§8) MC-38 mouse colorectal cancer cells (1×10^6) were inoculated, and diets were continued after inoculation.

[5] = system: MC-38 mouse colorectal cancer cells; assay: Growth of MC-38 colorectal cancer tumors in prebiotic-fed mice; format: in vivo, C57BL/6 mice; conditions: 3% mucin in drinking water or 15% inulin diet from two weeks prior to inoculation
Description: as §8

Yumm1.5 tumors [6] = assay: Growth of Yumm1.5 melanoma tumors in prebiotic-fed mice; format: in vivo, C57BL/6 mice; conditions: mucin 3% in drinking water or inulin 15% w/w chow from 2 weeks prior to inoculation of 1×10^6 Yumm1.5 cells
Description: as §1

Bifidobacterium spp. = assay: Anaerobic fecal cultures with 1% prebiotic, 16S rDNA quantification; format: cell-based, human; conditions: in two of these cultures
Procedure: as §4, §5, §6, §7

| Compound | N-Ras mutant tumor growth ([1]; MEKi (PD325901) 10 mg/kg daily by gavage, alone or with prebiotic) | phylotype group related to Parasutterella excrementihominis (gut microbiota; in the absence of MEKi) | taxa increased in relative abundance (gut microbiota; in the absence of MEKi) | Akkermansia muciniphila (gut microbiota; inulin+MEKi treated mice compared to inulin alone) | MHC class I and MHC class II on tumor-resident DCs (Yumm1.5 tumors [2]) | dendritic cell subsets including pDCs and CD8a+ conventional DCs in tumors (Yumm1.5 tumors [2]) | effector (CD44hi) CD4+ and CD8+ T cells, and CD45+ cells in tumors (Yumm1.5 tumors [2]; compared to control mice) | expression of multiple pro-inflammatory mediators in CD8+ T cells (CD8+ T cells) | levels of NOD2, IL-6 and CXCL2 mRNA in intestinal epithelial cells [3] | control of N-Ras mutant tumors ([1]; in the absence of MEKi, mucin 3% in water or inulin 15% in chow) | intrinsic resistance of MaN-Ras melanoma cells to MEKi ([1]; inulin-fed mice treated with MEKi) | relative abundance of Bacteroides spp. (Bacteroides spp.) | CD4+ or CD8+ T cells, CD45+ cells, cytokine production, DCs and DC subsets in tumors [4] | anti-tumor immune responses, MHC class II and I expression on DCs [4] | growth of colon cancer MC-38 tumors [5] | melanoma tumor growth (Yumm1.5 tumors [6]) | Bifidobacterium spp. (Bifidobacterium spp.) |
| --- | --- | --- | --- | --- | --- | --- | --- | --- | --- | --- | --- | --- | --- | --- | --- | --- | --- |
| O=C(NOC[C@H](O)CO)c1ccc(F)c(F)c1Nc1ccc(I)cc1F [MEKi, PD325901, reference compound] | effectively controlled tumor growth |  |  |  |  |  |  |  |  |  |  |  |  |  |  |  |  |
| inulin |  | notable increase | primarily increased the relative abundance of taxa mapped in or near Clostridium cluster XIVa | robustly enriched | higher levels | increased | enrichment | increased expression | increased | modestly controlled | delayed | increased | No differences | enhanced | attenuated | attenuated | strong increase |
